Literature values in publication PMC4287963 (Inorganic chemistry, 2009).

Conditions: Cu(II) complex of TETA; cited from earlier work

For `O=C(O)CN1CCCN(CC(=O)O)CCN(CC(=O)O)CCCN(CC(=O)O)CC1` [TETA], the “thermodynamic formation constant log K” value is given as 21.9.
